“And” between values parts separate entries of the source, which are not always exact repeats. Identical values can stand only once. “Also recorded” adds a separate entry of the source.
Experiments:
[1] = Rheology of CASP hydrogels/solutions (strain sweep, shear recovery); format: physicochemical; details: for storage modulus (G') at 1% strain: 2% w/v hydrogels/solutions
Method: For rheology, 2% peptide hydrogel was transferred between a plate and a 4 mm parallel plate geometry with a gap of 350 μm, on a Malvern Kinexus Ultra+rheometer. Strain sweep (0.1-100% strain at 1 Hz) and shear recovery (1% strain at 1 Hz for 5 min, 100% strain at 1 Hz for 1 min, and 1% strain at 1 Hz for 5 min) were carried out.

[2] = Hydrogel formation after addition of 10xPBS to 2% (w/v) peptide solution in 298 mM sucrose; format: physicochemical; details: 2% (w/v) in 298 mM sucrose, 10xPBS pH 7 added 1:9
Method: In one example, after purification and lyophilization, the peptides are dissolved in 298 mM sucrose solution to prepare 2% (w/v) solutions. After the addition of 10×PBS (pH 7) to the peptide solution (in a 1:9 volumetric ratio), hydrogels form within seconds. Biofilms of the gram-negative bacteria Pseudomonas putida are grown on agar plates and CASP solutions are applied on top of established biofilms to test their ability to disrupt the bacterial colony. Cationic amphiphilic peptide nanofibers show noticeable bactericidal effect on biofilms. This effect is correlated with the terminal charge on the cationic nanofibers, consistent with initial hypothesis contained herein that higher terminal charge facilitates the association of the peptide nanofibrils with the bacterial cell membrane. The effect of the antibacterial hydrogel is localized on the biofilm.
In this example, a series of CASPs was explored. The series of CASPs were synthesized through solid-phase peptide synthesis and verified by mass spectrometry as shown in FIGS. 3A-3D. After purification and lyophilisation, the peptides were dissolved in 298 mM sucrose solution to prepare 2% (w/v) solutions. After the addition of 10×PBS (pH 7) to the peptide solution (in a 1:9 volumetric ratio), CASP-K2 through CASP-K6 formed hydrogels within seconds.

[3] = test system: Pseudomonas aeruginosa PAO1; assay: Colony disruption on agar plates (inhibition zones, SEM); format: cell-based; details: P. aeruginosa PAO1 on agar, peptide hydrogels/solutions applied, overnight
Method: Colonies of the gram-negative bacteria Pseudomonas aeruginosa PAO1 were grown on agar and CASP solutions were applied to assess their colony-disruption ability (FIGS. 9A-9E). Cationic amphiphilic peptide nanofibers show noticeable bactericidal effect. This effect was correlated with the terminal charge on the cationic nanofibers (FIGS. 9C-9D), consistent with the hypothesis that a greater terminal charge facilitates the association of the peptide nanofibrils with the bacterial cell membrane.
To test the efficacy of CASPs against bacterial colonies, Pseudomonas aeruginosa (PAO1) were cultured on agar plates and peptide hydrogels/solutions were placed on these bacteria cultures during the exponential growth phase to evaluate the antibacterial properties. The experiment to test antibacterial activity of the peptides was carried out over 4 days. On day 1, an agar plate was streaked with the bacteria using an inoculating loop. The streaked plate was then kept in an incubator to allow for bacterial growth overnight. Day 2 consisted of inoculating one colony of bacteria from the streaked plate into a glass tube filled with 5 mL of the Luria-Bertani (LB) broth. The tube is then set aside to allow for the colony to grow overnight in the LB broth. The following day the agar plates were labeled with the type of bacteria, concentration used, treatment being tested, and the date. […]

[4] = cited from earlier work
[5] = In vivo subcutaneous implantation of hydrogel, histology; set-up: species or system Wistar rats
Method: To test the in vivo persistence of the peptide, Wistar rats were subcutaneously injected with 200 μL CASP-K6 hydrogel (2% w/v). Because of the thixotropic nature of the hydrogel, it reconstituted post-injection in the subcutaneous pocket. At prescribed time intervals (1, 3, and 7 days), the rats were sacrificed and the dorsal skin covering the implant was removed for histological examination. Used was hematoxylin and eosin (H&E) FIGS. 15A-15B, and Masson's trichrome staining FIGS. 15C-15D) to analyze the tissue sections.
For in vivo subcutaneous implantations, NJIT-Rutgers animal care facility was used. Injected was ˜200 μL CASP-K6 hydrogels in the subcutaneous pocket (dorsal aspect) of female Wistar rats (˜250 g, Charles River) (four implants (n=4) per rat). At the specified time points (1 day, 3 day, and 7 day), the animals were sacrificed and regions around the implant were excised, fixed, and processed. Hematoxylin and eosin (H&E) and Masson's trichrome staining was used for histologic analysis.

[6] = test system: NIH 3T3 fibroblasts; assay: In vitro cytocompatibility (LIVE/DEAD viability/cytotoxicity kit); format: cell-based; details: 0.002% peptide in media, day 3
Method: For in vitro cytocompatibility tests, cultured were NIH 3T3 fibroblasts in DMEM supplemented with 10% FBS and 1× penicillin-streptomycin in T75 flasks. After the fibroblasts reached confluency, they were seeded in a 96-well plate at 2,500 cells/well. 0.002% CASP-K6 (n=6) and a control (media with sucrose and phosphate-buffered saline (PBS), n=6) were tested. For the former, the peptide was supplemented in the media, and for the control, 298 mM sucrose and PBS was supplemented to the media. The sucrose and PBS supplemented in the media control corresponded to the quantities required to formulate CASP-K6. Media was changed daily for 3 days and cytocompatibility was assessed on day 3 using a LIVE/DEAD viability/cytotoxicity kit (images were taken on a Nikon Eclipse Ti—S inverted fluorescent microscope). A NIH ImageJ was used to quantify cell viability.

KKKKSLSLSLSLSLSLKKKK (CASP-K4) [cationic amphiphilic self-assembling peptide]
storage modulus (G') at 1% strain [1]: ~430 Pa

KKKKKKKKSLSLSLSLSLSLKKKKKKKK (CASP-K8) [cationic amphiphilic self-assembling peptide]
hydrogel formation [2]: failed to form a gel; also recorded: remained in solution | disruption of bacterial colonies / antibacterial activity [3]: very effective in disrupting the bacterial layer | storage modulus (G') at 1% strain [1]: ~30 Pa

KKSLSLSLSLSLSLKK (CASP-K2) [cationic amphiphilic self-assembling peptide, previously reported as a multifunctional scaffold]
storage modulus (G') at 1% strain [1]: ~620 Pa

LL-37: natural antimicrobial peptide
enzymatic degradation in vivo [4]: susceptible to enzymatic degradation in vivo within a time period of hours

Ac-KKKKKKSLSLSLSLSLSLKKKKKK-NH2 [CASP-K6]
in vivo persistence ([5]; rat, in vivo, sc): persists in vivo | in vivo persistence of subcutaneous implant (remained observable) ([5]; rat, in vivo, sc): at least 7 days | local/systemic toxicity or mortality ([5]; subcutaneous implants in rats, up to 7 days): did not induce any local/systemic toxicity or mortality | disruption of bacterial colonies / antibacterial activity [3]: very effective in disrupting the bacterial layer; also recorded: comparable antibacterial activity | storage modulus (G') at 1% strain [1]: ~210 Pa | storage modulus of hydrogel (rheometry) ([1]; strain not stated): > 100 Pa and > 200 Pa | shear strain at which the gel liquefied (G'<G'') ([1]; strain sweep): > 30 % strain | toxicity with respect to mammalian cells (cytocompatibility) [6]: low toxicity
